The values below are quoted from earlier work in patent US6830755B2, “Method for relaxing human beings using personal care compositions” (Johnson & Johnson Consumer Companies, Inc., priority 1999, dated 2004).

In the series the test system is salivary cortisol. The settings on record: exposure to fragrance before stressful arithmetic.

On to `Cc1c[nH]c2ccccc12` [skatole], for which the “effect on stress induced release of cortisol (in words)” value is given as “had the opposite effect”.
